The numbers were not newly measured in patent US8247398B2, “Zinc complexes of natural amino acids for treating elevated copper caused toxicities” (SSV Therapeutics, Inc., priority 2007, dated 2012), which cites them from elsewhere.

In the case of `O=S(=O)([O-])[O-].[Zn+2]` [Zinc sulfate, zinc sulfate], the “patient discomfort compared with zinc acetate” value (Wilson's disease therapy) is listed as “even more patient discomfort”.

Turning to zinc dipicolinate, the “metallothionein induction in the epidermis, sebaceous glands and hair follicles” value in the series with metallothionein (same test as zinc histidine chelate (rats)) was “substantially raised”. Regarding `N[C@@H](Cc1c[nH]cn1)C(=O)O.[Zn]` [zinc histidine], the “metallothionein production in livers” value in the series on metallothionein (oral administration, male Wistar rat livers, within 12 hours) is 14-39 fold over control group. As for `CC(=O)[O-].CC(=O)[O-].[Zn+2]` [zinc acetate], the “patients encountering persistent gastric irritation, burning sensation, and nausea” value (patients receiving zinc acetate therapy) is given as “About 10%”. In addition, the “time before therapy is tolerable to the patient” value (taken on an empty stomach or in-between meals) was “several days or weeks”.
